Assay results as given in ChEMBL document CHEMBL3886981, “Phenylpyrazole derivatives as potent ROCK1 and ROCK2 inhibitors” (2016).

Molecular target: Rho-associated protein kinase 2 (Homo sapiens, UniProt O75116)
Experiment: In Vitro Assay: The effectiveness of compounds of the present invention as ROCK inhibitors can be determined in a 30 μL assay containing 20 mM HEPES, pH 7.5, 20 mM MgCl2, 0.015% Brij-35, 4 mM DTT, 5 μM ATP and 1.5 μM peptide substrate (FITC-AHA-[…]-OH). Compounds were dissolved in DMSO so that the final concentration of DMSO was <2%, and the reaction was initiated with Rho kinase variants. After incubation, the reaction was terminated by the addition of EDTA and the phosphorylated and non-phosphorylated peptides separated using a LABCHIP® 3000 Reader (Caliper Life Sciences).

Sequence of Rho-associated protein kinase 2 (O75116 whole entry, looked up, change not shown): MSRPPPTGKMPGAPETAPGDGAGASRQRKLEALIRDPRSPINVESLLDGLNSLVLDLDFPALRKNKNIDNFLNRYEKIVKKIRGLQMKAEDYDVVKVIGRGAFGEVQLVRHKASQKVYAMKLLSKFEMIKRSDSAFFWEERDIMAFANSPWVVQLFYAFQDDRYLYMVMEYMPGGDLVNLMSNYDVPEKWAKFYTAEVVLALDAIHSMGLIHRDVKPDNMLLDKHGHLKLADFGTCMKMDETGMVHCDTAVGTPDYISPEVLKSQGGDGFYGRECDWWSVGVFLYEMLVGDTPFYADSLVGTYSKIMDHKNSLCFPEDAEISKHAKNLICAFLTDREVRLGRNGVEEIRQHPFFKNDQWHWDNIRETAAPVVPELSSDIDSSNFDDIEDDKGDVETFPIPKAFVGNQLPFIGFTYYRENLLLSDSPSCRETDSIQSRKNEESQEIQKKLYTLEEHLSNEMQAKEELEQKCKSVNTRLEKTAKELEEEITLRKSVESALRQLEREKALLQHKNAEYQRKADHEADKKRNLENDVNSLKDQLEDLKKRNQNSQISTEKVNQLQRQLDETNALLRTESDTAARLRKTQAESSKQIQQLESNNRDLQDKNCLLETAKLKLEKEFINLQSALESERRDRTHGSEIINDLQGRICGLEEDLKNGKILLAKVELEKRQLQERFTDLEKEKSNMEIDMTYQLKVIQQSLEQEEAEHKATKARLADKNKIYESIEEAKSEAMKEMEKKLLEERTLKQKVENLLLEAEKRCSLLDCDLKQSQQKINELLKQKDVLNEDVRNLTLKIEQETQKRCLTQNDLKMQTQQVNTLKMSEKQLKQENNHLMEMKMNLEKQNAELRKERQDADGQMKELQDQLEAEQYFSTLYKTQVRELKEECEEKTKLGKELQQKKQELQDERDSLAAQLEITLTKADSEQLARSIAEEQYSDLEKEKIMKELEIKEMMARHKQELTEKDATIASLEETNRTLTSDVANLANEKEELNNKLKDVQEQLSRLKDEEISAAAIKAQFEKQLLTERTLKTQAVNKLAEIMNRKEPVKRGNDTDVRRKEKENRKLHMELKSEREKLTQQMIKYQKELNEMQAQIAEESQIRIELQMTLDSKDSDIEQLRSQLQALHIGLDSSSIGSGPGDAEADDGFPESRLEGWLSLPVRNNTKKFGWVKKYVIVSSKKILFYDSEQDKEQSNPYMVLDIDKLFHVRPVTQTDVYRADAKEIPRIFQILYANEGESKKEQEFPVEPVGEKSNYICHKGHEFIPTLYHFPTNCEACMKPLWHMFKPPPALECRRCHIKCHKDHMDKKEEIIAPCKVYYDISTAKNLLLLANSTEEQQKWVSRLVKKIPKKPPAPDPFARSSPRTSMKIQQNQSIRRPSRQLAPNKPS

IC50: 662 nM
Structure (SMILES): COc1cc(C(=O)NCC2=CCC3NC(=O)NC3=C2)ccc1-c1cn[nH]c1 (stereo unspecified)
